Results taken from patent US20260262643A1, “HERBICIDAL BENZOXAZINES” (FMC CORPORATION, priority 2022, published 2026).

How the values were obtained:
ryegrass, Italian [1] = assay: Test C postemergence; type: in vivo, Lolium multiflorum; settings: 10 days
In short: (§1)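 Visual injury ratings on a 0–100 scale (100 = complete control) were made against untreated controls 10 days after treatment in the greenhouse. Compounds, formulated with surfactant in non-phytotoxic solvent, were sprayed on soil preemergence or onto one- to two-leaf plants 2–10 cm tall postemergence.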

corn [2] = assay: Test C preemergence; type: in vivo, Zea mays; settings: 0 to 100 scale (0 no effect, 100 complete control)
In short: as §1

green foxtail [3] = assay: Test C preemergence; type: in vivo, Setaria viridis; settings: 0 to 100 scale (0 no effect, 100 complete control)
In short: as §1

kochia [4] = assay: Test C postemergence; type: in vivo, Bassia scoparia; settings: 10 days
In short: as §1

barnyardgrass [5] = assay: Test D flooded paddy test; type: in vivo, Echinochloa crus-galli; settings: 250 g ai/ha, applied to paddy water, visual rating after 13 to 14 days, scale 0 to 100 (0 no effect, 100 complete control)
In short: (§2)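 2-leaf plants; flood 3 cm above soil; compound dosed into paddy water; greenhouse 13–14 d; visual rating vs controls, 0–100 (100 = complete control); dash = not tested.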

soybean [6] = assay: Test C preemergence; type: in vivo, Glycine max; settings: 0 to 100 scale (0 no effect, 100 complete control)
In short: as §1

kochia [7] = assay: Test C preemergence; type: in vivo, Bassia scoparia; settings: 0 to 100 scale (0 no effect, 100 complete control)
In short: as §1

ragweed [8] = assay: Test C preemergence; type: in vivo, Ambrosia artemisiifolia; settings: 0 to 100 scale (0 no effect, 100 complete control)
In short: as §1

oat, wild [9] = assay: Test C postemergence; type: in vivo, Avena fatua; settings: 10 days
In short: as §1

green foxtail [10] = assay: Test C postemergence; type: in vivo, Setaria viridis; settings: 10 days
In short: as §1

wheat [11] = assay: Test C postemergence; type: in vivo, Triticum aestivum; settings: 10 days
In short: as §1

oat, wild [12] = assay: Test C preemergence; type: in vivo, Avena fatua; settings: 0 to 100 scale (0 no effect, 100 complete control)
In short: as §1

barnyardgrass [13] = assay: Test C postemergence; type: in vivo, Echinochloa crusgalli; settings: 10 days
In short: as §1

corn [14] = assay: Test C postemergence; type: in vivo, Zea mays; settings: 10 days
In short: as §1

blackgrass [15] = assay: Test C postemergence; type: in vivo, Alopecurus myosuroides; settings: 10 days
In short: as §1

ragweed [16] = assay: Test C postemergence; type: in vivo, Ambrosia artemisiifolia; settings: 10 days
In short: as §1

rice = assay: Test D flooded paddy test; type: in vivo, Oryza sativa; settings: 250 g ai/ha, applied to paddy water, visual rating after 13 to 14 days, scale 0 to 100 (0 no effect, 100 complete control)
In short: as §2

wheat [17] = assay: Test C preemergence; type: in vivo, Triticum aestivum; settings: 0 to 100 scale (0 no effect, 100 complete control)
In short: as §1

galium = assay: Test C postemergence; type: in vivo, Galium aparine; settings: 10 days
In short: as §1

blackgrass [18] = assay: Test C preemergence; type: in vivo, Alopecurus myosuroides; settings: 0 to 100 scale (0 no effect, 100 complete control)
In short: as §1

horseweed = assay: Test C postemergence; type: in vivo, Erigeron canadensis; settings: 10 days
In short: as §1

soybean [19] = assay: Test C postemergence; type: in vivo, Glycine max; settings: 10 days
In short: as §1

pigweed, palmer [20] = assay: Test C postemergence; type: in vivo, Amaranthus palmeri; settings: 10 days
In short: as §1

pigweed, palmer [21] = assay: Test C preemergence; type: in vivo, Amaranthus palmeri; settings: 0 to 100 scale (0 no effect, 100 complete control)
In short: as §1

barnyardgrass [22] = assay: Test C preemergence; type: in vivo, Echinochloa crusgalli; settings: 0 to 100 scale (0 no effect, 100 complete control)
In short: as §1

ryegrass, Italian [23] = assay: Test C preemergence; type: in vivo, Lolium multiflorum; settings: 0 to 100 scale (0 no effect, 100 complete control)
In short: as §1

sedge, umbrella = assay: Test D flooded paddy test; type: in vivo, Cyperus difformis; settings: 250 g ai/ha, applied to paddy water, visual rating after 13 to 14 days, scale 0 to 100 (0 no effect, 100 complete control)
In short: as §2

ducksalad = assay: Test D flooded paddy test; type: in vivo, Heteranthera limosa; settings: 250 g ai/ha, applied to paddy water, visual rating after 13 to 14 days, scale 0 to 100 (0 no effect, 100 complete control)
In short: as §2

[24] = 125 g ai/ha, postemergence, 0 to 100 scale, 0 no effect, 100 complete control
[25] = Postemergence, 500 g ai/ha, visual 0 to 100 scale (0 no effect, 100 complete control)
[26] = Preemergence, 500 g ai/ha, visual rating after 10 days
[27] = Test C, preemergence, 125 g ai/ha

**Q.** For `C[C@H]1CN(C(=O)c2cccc(-n3cnc(C(C)(C)O)n3)c2)c2cccc(Cl)c2O1` [Compound 169], which “Plant response rating, Ryegrass, Italian” value (ryegrass, Italian [1]; [24]) is on record?
**A.** Its value is 60.

**Q.** And the “Plant response rating, Ryegrass, Italian” value (ryegrass, Italian [1]; [25])?
**A.** Its value is 100.

**Q.** What about the “Plant response rating, Corn” value (corn [2]; [26]) of the same compound?
**A.** The value was 40.

**Q.** And the “Corn plant response rating” value (corn [2]; [27])?
**A.** The value was 0.

**Q.** What about the “Plant response rating, Foxtail, Green” value (green foxtail [3]; [26]) of the same compound?
**A.** Its value is 100.

**Q.** And the “Foxtail, Green plant response rating” value (green foxtail [3]; [27])?
**A.** The value was 100.

**Q.** And the “Plant response rating, Kochia” value (kochia [4]; [24])?
**A.** The value was 90.

**Q.** And the “Plant response rating, Kochia” value (kochia [4]; [25])?
**A.** Its value is 90.

**Q.** What about the “Plant response rating, Barnyardgrass (Flood)” value (barnyardgrass [5]) of the same compound?
**A.** The value was 0.

**Q.** And the “Plant response rating, Soybean” value (soybean [6]; [26])?
**A.** The value was 90.

**Q.** What about the “Soybean plant response rating” value (soybean [6]; [27]) of the same compound?
**A.** Its value is 90.

**Q.** And the “Plant response rating, Kochia” value (kochia [7]; [26])?
**A.** Its value is 100.

**Q.** What about the “Kochia plant response rating” value (kochia [7]; [27]) of the same compound?
**A.** The value was 100.

**Q.** And the “Plant response rating, Ragweed” value (ragweed [8]; [26])?
**A.** The value was 100.

**Q.** What about the “Ragweed plant response rating” value (ragweed [8]; [27]) of the same compound?
**A.** Its value is 50.

**Q.** And the “Plant response rating, Oat, Wild” value (oat, wild [9]; [24])?
**A.** The value was 80.

**Q.** What about the “Plant response rating, Oat, Wild” value (oat, wild [9]; [25]) of the same compound?
**A.** The value was 90.

**Q.** What about the “Plant response rating, Foxtail, Green” value (green foxtail [10]; [24]) of the same compound?
**A.** The value was 30.

**Q.** And the “Plant response rating, Foxtail, Green” value (green foxtail [10]; [25])?
**A.** Its value is 90.

**Q.** And the “Plant response rating, Wheat” value (wheat [11]; [24])?
**A.** Its value is 6.

**Q.** What about the “Plant response rating, Wheat” value (wheat [11]; [25]) of the same compound?
**A.** Its value is 90.

**Q.** What about the “Plant response rating, Oat, Wild” value (oat, wild [12]; [26]) of the same compound?
**A.** Its value is 90.

**Q.** And the “Oat, Wild plant response rating” value (oat, wild [12]; [27])?
**A.** Its value is 80.

**Q.** What about the “Plant response rating, Barnyardgrass” value (barnyardgrass [13]; [24]) of the same compound?
**A.** The value was 20.

**Q.** And the “Plant response rating, Barnyardgrass” value (barnyardgrass [13]; [25])?
**A.** The value was 70.

**Q.** What about the “Plant response rating, Corn” value (corn [14]; [24]) of the same compound?
**A.** The value was 80.

**Q.** And the “Plant response rating, Corn” value (corn [14]; [25])?
**A.** Its value is 90.

**Q.** What about the “Plant response rating, Blackgrass” value (blackgrass [15]; [24]) of the same compound?
**A.** Its value is 90.

**Q.** And the “Plant response rating, Blackgrass” value (blackgrass [15]; [25])?
**A.** The value was 100.

**Q.** And the “Plant response rating, Ragweed” value (ragweed [16]; [24])?
**A.** The value was 50.

**Q.** And the “Plant response rating, Ragweed” value (ragweed [16]; [25])?
**A.** The value was 90.

**Q.** What about the “Plant response rating, Rice (Flood)” value (rice) of the same compound?
**A.** Its value is 0.

**Q.** And the “Plant response rating, Wheat” value (wheat [17]; [26])?
**A.** Its value is 90.

**Q.** What about the “Wheat plant response rating” value (wheat [17]; [27]) of the same compound?
**A.** Its value is 30.

**Q.** And the “Plant response rating, Galium” value (galium; [24])?
**A.** The value was 100.

**Q.** What about the “Plant response rating, Galium” value (galium; [25]) of the same compound?
**A.** Its value is 100.

**Q.** What about the “Plant response rating, Blackgrass” value (blackgrass [18]; [26]) of the same compound?
**A.** Its value is 90.

**Q.** What about the “Blackgrass plant response rating” value (blackgrass [18]; [27]) of the same compound?
**A.** Its value is 90.

**Q.** And the “Plant response rating, Horseweed” value (horseweed; [24])?
**A.** The value was 0.

**Q.** And the “Plant response rating, Horseweed” value (horseweed; [25])?
**A.** The value was 40.

**Q.** What about the “Plant response rating, Soybean” value (soybean [19]; [24]) of the same compound?
**A.** Its value is 100.

**Q.** And the “Plant response rating, Soybean” value (soybean [19]; [25])?
**A.** Its value is 100.

**Q.** What about the “Plant response rating, Pigweed, Palmer” value (pigweed, palmer [20]; [24]) of the same compound?
**A.** Its value is 70.

**Q.** What about the “Plant response rating, Pigweed, Palmer” value (pigweed, palmer [20]; [25]) of the same compound?
**A.** Its value is 90.

**Q.** What about the “Plant response rating, Pigweed, Palmer” value (pigweed, palmer [21]; [26]) of the same compound?
**A.** Its value is 100.

**Q.** What about the “Pigweed, Palmer plant response rating” value (pigweed, palmer [21]; [27]) of the same compound?
**A.** The value was 100.

**Q.** What about the “Barnyardgrass plant response rating” value (barnyardgrass [22]; 125 g ai/ha, preemergence) of the same compound?
**A.** The value was 80.

**Q.** And the “Plant response rating, Barnyardgrass” value (barnyardgrass [22]; [26])?
**A.** The value was 100.

**Q.** And the “Plant response rating, Ryegrass, Italian” value (ryegrass, Italian [23]; [26])?
**A.** Its value is 100.

**Q.** And the “Ryegrass, Italian plant response rating” value (ryegrass, Italian [23]; [27])?
**A.** The value was 90.

**Q.** What about the “Plant response rating, Sedge, Umbrella (Flood)” value (sedge, umbrella) of the same compound?
**A.** The value was 85.

**Q.** What about the “Plant response rating, Ducksalad (Flood)” value (ducksalad) of the same compound?
**A.** Its value is 90.
